From ChEMBL document CHEMBL1201862, “PubChem BioAssay data set” (2004)
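The compound was tested at five concentrations on cells cultured in 96-well plates, with a 48-hour exposure period. GI50 is the concentration that inhibits growth by half.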 Active and inactive are the calls of the source. Cut-off read from the data, not from the text of the source: active = GI50 up to about 1.1 µM and inactive = higher.

Columns and labels:
Experiment in all cases: inhibition of tumour cell growth, NCI panel, 48 h
[1] = system: 786-0
[2] = system: A498
[3] = system: A549
[4] = system: ACHN
[5] = system: BT-549
[6] = system: CAKI-1
[7] = system: CCRF-CEM
[8] = system: COLO 205
[9] = system: DU-145
[10] = system: EKVX
[11] = system: HCC 2998
[12] = system: HCT-116
[13] = system: HCT-15
[14] = system: HL-60
[15] = system: HOP-62
[16] = system: HOP-92
[17] = system: HT-29
[18] = system: Hs-578T
[19] = system: IGROV-1
[20] = system: K562
[21] = system: KM12
[22] = system: LOX IMVI
[23] = system: M14
[24] = system: MCF7
[25] = system: MDA-MB-231
[26] = system: MDA-MB-435
[27] = system: Malme-3M
[28] = system: NCI-H226
[29] = system: NCI-H23
[30] = system: NCI-H460
[31] = system: NCI-H522
[32] = system: NCI/ADR-RES
[33] = system: OVCAR-3
[34] = system: OVCAR-5
[35] = system: OVCAR-8
[36] = system: PC-3
[37] = system: RPMI-8226
[38] = system: RXF 393
[39] = system: SF-268
[40] = system: SF-539
[41] = system: SK-MEL-28
[42] = system: SK-MEL-2
[43] = system: SK-MEL-5
[44] = system: SK-OV-3
[45] = system: SN12C
[46] = system: SNB-19
[47] = system: SR
[48] = system: SW-620
[49] = system: T47D
[50] = system: TK-10
[51] = system: U-251
[52] = system: UACC-257
[53] = system: UACC-62
[54] = system: UO-31
[55] = system: MDA-N
[56] = system: MOLT-4
[57] = system: OVCAR-4
[58] = system: SF-295

**Q.** What does the source list for `Cc1cc2c(C(C)C)c(O)c(O)c(/C=N/c3cc(C(F)(F)F)ccc3Cl)c2c(O)c1-c1c(C)cc2c(C(C)C)c(O)c(O)c(/C=N/c3cc(C(F)(F)F)ccc3Cl)c2c1O`?
**A.** GI50 [1]: 50.6 µM (inactive); GI50 [2]: 64.3 µM (inactive); GI50 [3]: 38.5 µM (inactive); GI50 [4]: 24.9 µM (inactive); GI50 [5]: 28.3 µM (inactive); GI50 [6]: 48.3 µM (inactive); GI50 [7]: > 100 µM (inactive); GI50 [8]: 31.2 µM (inactive); GI50 [9]: > 100 µM (inactive); GI50 [10]: 98.6 µM (inactive); GI50 [11]: 62.7 µM (inactive); GI50 [12]: 74.8 µM (inactive); GI50 [13]: 34.8 µM; GI50 [14]: 26.9 µM (inactive); GI50 [15]: 70.5 µM (inactive); GI50 [16]: 16.6 µM (inactive); GI50 [17]: 32.5 µM (inactive); GI50 [18]: > 100 µM (inactive); GI50 [19]: 25.1 µM (inactive); GI50 [20]: 39.4 µM (inactive); GI50 [21]: 30.1 µM (inactive); GI50 [22]: 22.6 µM (inactive); GI50 [23]: 75.3 µM (inactive); GI50 [24]: 27.7 µM (inactive); GI50 [25]: 25.6 µM (inactive); GI50 [26]: 32.6 µM (inactive); GI50 [27]: 32.8 µM (inactive); GI50 [28]: 29 µM (inactive); GI50 [29]: 57.8 µM (inactive); GI50 [30]: 31.3 µM (inactive); GI50 [31]: 21.5 µM (inactive); GI50 [32]: 63.5 µM (inactive); GI50 [33]: 37.3 µM (inactive); GI50 [34]: 77.3 µM (inactive); GI50 [35]: 44.5 µM (inactive); GI50 [36]: 35 µM (inactive); GI50 [37]: 50.7 µM (inactive); GI50 [38]: 28.8 µM (inactive); GI50 [39]: 37.2 µM (inactive); GI50 [40]: 58.6 µM (inactive); GI50 [41]: 38.1 µM (inactive); GI50 [42]: 35.3 µM (inactive); GI50 [43]: 23.6 µM (inactive); GI50 [44]: 12.5 µM (inactive); GI50 [45]: 49.1 µM (inactive); GI50 [46]: 28.1 µM (inactive); GI50 [47]: 25.4 µM (inactive); GI50 [48]: 58.2 µM (inactive); GI50 [49]: 29.6 µM (inactive); GI50 [50]: 60.7 µM (inactive); GI50 [51]: 19.3 µM (inactive); GI50 [52]: 37.4 µM (inactive); GI50 [53]: 24.6 µM (inactive); GI50 [54]: 30.2 µM (inactive)

**Q.** Which results are given for `N#Cc1nc(Cc2ccccc2)oc1N`?
**A.** GI50 [1]: > 100 µM (inactive); GI50 [3]: > 100 µM (inactive); GI50 [4]: > 100 µM (inactive); GI50 [5]: > 100 µM (inactive); GI50 [6]: > 100 µM (inactive); GI50 [7]: 44.3 µM (inactive); GI50 [8]: > 100 µM (inactive); GI50 [9]: > 100 µM (inactive); GI50 [10]: > 100 µM (inactive); GI50 [12]: > 100 µM (inactive); GI50 [13]: > 100 µM; GI50 [15]: > 100 µM (inactive); GI50 [17]: > 100 µM (inactive); GI50 [18]: 25.2 µM (inactive); GI50 [19]: > 100 µM (inactive); GI50 [20]: 42.1 µM (inactive); GI50 [21]: > 100 µM (inactive); GI50 [22]: > 100 µM (inactive); GI50 [23]: > 100 µM (inactive); GI50 [24]: > 100 µM (inactive); GI50 [25]: > 100 µM (inactive); GI50 [26]: > 100 µM (inactive); GI50 [55]: > 100 µM (inactive); GI50 [56]: > 100 µM (inactive); GI50 [27]: > 100 µM (inactive); GI50 [28]: > 100 µM (inactive); GI50 [29]: > 100 µM (inactive); GI50 [30]: > 100 µM (inactive); GI50 [33]: > 100 µM (inactive); GI50 [57]: > 100 µM (inactive); GI50 [34]: > 100 µM (inactive); GI50 [36]: > 100 µM (inactive); GI50 [37]: 16.9 µM (inactive); GI50 [38]: > 100 µM (inactive); GI50 [39]: > 100 µM (inactive); GI50 [58]: > 100 µM (inactive); GI50 [40]: > 100 µM (inactive); GI50 [41]: > 100 µM (inactive); GI50 [42]: > 100 µM (inactive); GI50 [43]: > 100 µM (inactive); GI50 [44]: > 100 µM (inactive); GI50 [45]: > 100 µM (inactive); GI50 [46]: 38.7 µM (inactive); GI50 [47]: > 100 µM (inactive); GI50 [48]: > 100 µM (inactive); GI50 [49]: > 100 µM (inactive); GI50 [50]: > 100 µM (inactive); GI50 [51]: > 100 µM (inactive); GI50 [52]: > 100 µM (inactive); GI50 [54]: > 100 µM (inactive)
